Measurements published in ChEMBL document CHEMBL4433230, “Revisiting microtubule targeting agents: α-Tubulin and the pironetin binding site as unexplored targets for cancer therapeutics” (Bioorg Med Chem Lett, 2019).

How the values were obtained:
HeLa = test: Cytotoxicity against human HeLa cells assessed as reduction in growth; type: functional
P388 [1] = test: Antitumor activity in CDF1-SLC mouse injected with mouse P388 cells assessed as mean survival time at 3.13 mg/kg, ip treated for 5 days (reference value: 11.2 +/- 0.84 days); type: functional
DC3F = test: Cytotoxicity against hamster DC-3F cells assessed as reduction in growth after 4 days by HCS assay; type: functional; conditions: Cricetulus griseus, 96 h
MCF7 = test: Cytotoxicity against human MCF7 cells assessed as reduction in growth after 3 days by MTT assay; type: functional; conditions: MCF7, 72 h
MDA-MB-231 = test: Cytotoxicity against human MDA-MB-231 cells assessed as reduction in growth after 4 days by HCS assay; type: functional; conditions: MDA-MB-231, 96 h
HL-60 = test: Cytotoxicity against human HL60 cells assessed as reduction in growth after 24 hrs by MTT assay; type: functional; conditions: HL-60, 24 h
[2] = Toxicity in CDF1-SLC mouse injected with mouse P388 cells assessed as change in body weight at 0.78 mg/kg, ip treated for 5 days and measured on day 1 and 10 (reference value: 5.3g); type: organism-based; conditions: in vivo, 120 h
K562 = test: Cytotoxicity against human K562 cells assessed as reduction in growth after 4 days by MTT assay; type: functional; conditions: K562, 96 h
A549 = test: Cytotoxicity against human A549 cells assessed as reduction in growth after 4 days by HCS assay; type: functional; conditions: A549, 96 h
EL4 = test: Cytotoxicity against C57BL/6 mouse EL4 cells assessed as reduction in growth after 3 days; type: functional; conditions: C57BL/6, EL4, 72 h
P388 [3] = test: Antitumor activity in CDF1-SLC mouse injected with mouse P388 cells assessed as mean survival time at 1.56 mg/kg, ip treated for 5 days (reference value: 11.2 +/- 0.84 days); type: functional
[4] = Cytotoxicity against human H69/Txl cells assessed as reduction in growth after 7 days by MTT assay; type: functional; conditions: 168 h
K562/Adr = test: Cytotoxicity against human K562/ADR cells assessed as reduction in growth after 4 days by MTT assay; type: functional; conditions: 96 h
[5] = Toxicity in CDF1-SLC mouse injected with mouse P388 cells assessed as change in body weight at 1.56 mg/kg, ip treated for 5 days and measured on day 1 and 10 (reference value: 5.3g); type: organism-based; conditions: in vivo, 120 h
[6] = Cytotoxicity against human H69/VDS cells assessed as reduction in growth after 7 days by MTT assay; type: functional; conditions: 168 h
T98G = test: Cytotoxicity against human T98G cells assessed as reduction in growth after 4 days by MTS assay; type: functional; conditions: 96 h
P388 [7] = test: Cytotoxicity against mouse P388 cells assessed as reduction in growth after 24 hrs by MTT assay; type: functional; conditions: P388, 24 h
NCI-H69 = test: Cytotoxicity against human H69 cells assessed as reduction in growth after 7 days by MTT assay; type: functional; conditions: NCI-H69, 168 h
[8] = Toxicity in CDF1-SLC mouse injected with mouse P388 cells assessed as change in body weight at 3.13 mg/kg, ip treated for 5 days and measured on day 1 and 10 (reference value: 5.3g); type: organism-based; conditions: in vivo, 120 h
Mus musculus = test: Immunosuppressive activity in […] mouse injected with C57BL/6 mouse EL4 cells assessed as cytotoxic T cells generation by measuring specific lysis level at 5 mg/kg, ip treated for 2 to 15 days and measured on day 16 by gamma scintillation counter method (reference value: 18.6 +/- 4.15%); type: functional
P388 [9] = test: Antitumor activity in CDF1-SLC mouse injected with mouse P388 cells assessed as mean survival time at 0.78 mg/kg, ip treated for 5 days (reference value: 11.2 +/- 0.84 days); type: functional
[10] = Cytotoxicity against rat KNRK cells assessed as reduction in growth; type: functional
[11] = Toxicity in CDF1-SLC mouse injected with mouse P388 cells assessed as change in body weight at 6.25 mg/kg, ip treated for 5 days and measured on day 1 and 10 (reference value: 5.3g); type: organism-based; conditions: in vivo, 120 h
[12] = Cytotoxicity against hamster VCRd5L cells assessed as reduction in growth after 4 days by HCS assay; type: functional; conditions: Cricetulus griseus, 96 h
P388 [13] = test: Antitumor activity in CDF1-SLC mouse injected with mouse P388 cells assessed as mean survival time at 6.25 mg/kg, ip treated for 5 days (reference value: 11.2 +/- 0.84 days); type: functional

C/C=C/C[C@H](C)[C@@H](OC)[C@@H](C)[C@H](O)C[C@H]1OC(=O)C=C[C@H]1CC [PIRONETIN]
GI50 (HeLa): 0.03 µM | MST (P388 [1]): 13.3 days | GI50 (DC3F): 0.0095 µM | GI50 (MCF7): 0.005 µM | GI50 (MDA-MB-231): 0.0046 µM | GI50 (HL-60): 0.02 µM | Activity [2]: 3.7 g | GI50 (K562): 0.0173 µM | GI50 (A549): 0.0075 µM | GI50 (EL4): 0.015 µM | MST (P388 [3]): 11.7 days | GI50 [4]: 0.0115 µM | GI50 (K562/Adr): 0.016 µM | Activity [5]: 0.5 g | GI50 [6]: 0.0203 µM | GI50 (T98G): 0.0075 µM | GI50 (P388 [7]): 0.1 µM | GI50 (NCI-H69): 0.0175 µM | Activity [8]: -0.1 g | Activity (Mus musculus): 7.4% | MST (P388 [9]): 11.2 days | GI50 [10]: 0.03 µM | Activity [11]: -2.6 g | GI50 [12]: 0.031 µM | MST (P388 [13]): 14.3 days
